Experimental data reported in patent US11911436B2, “Amphiphilic peptide chaperones and methods of use” (priority 2021, dated 2024).
Marks after values point to notes of the source that are not given here.

Columns and labels:
C. elegans (N2 strain) = test: Thermotolerance assay, continuous heat stress at 35° C.; format: in vivo; details: N2 worms
Method: The lifespan of wild type C. elegans with and without peptide at a restrictive temperature was measured.
A schematic representation of the thermotolerance assay used is shown (FIG. 11A). 24 hours of 50 μg peptide treatment at 20° C. of a synchronized population of wild type C. elegans was followed by a continuous heat stress at 35° C. Worms were scored every two hours for 24 hours for survival.

ARPE-19 cells = test: Sodium iodate-induced oxidative stress, DCFH-DA staining; format: cell-based; details: 7.5 mM sodium iodate, 24 hrs
Method: The ability of CPPRAMC and CPAMC to suppress sodium iodate-induced oxidative stress in ARPE-19 cells was also assessed. ARPE-19 cells seeded on a 96-well plate were treated with 7.5 mM of sodium iodate and peptides in 100 μl of serum-free DMEM/F12 media for 24 hrs. The cells were then stained with 10 μM DCFH-DA for 30 min at 37° C. in the dark and the cells were observed under the EVOS FL Auto2 imaging system (Thermo Fisher Scientific, Waltham, Mass., USA) with 10× magnification.

human red blood cells = test: Melittin-induced hemolysis of human RBC; format: cell-based; details: 2% human RBC, room temperature 30 min, OD 540 nm
Method: Hemolysis of human red blood cells with melittin was measured with varying concentrations of CPAMC (FIG. 3). To 0.3 mL of 2% human RBC (red blood cell) suspension was added 2 μM melittin and/or peptides taken in 0.7 mL of PBS. The tubes were incubated at room temperature for 30 min, centrifuged, and the OD of the supernatant was measured at 540 nm. PBS and PBS containing 0.1% TritonX-100 served as negative and positive control, respectively.
The protective effect of Myr-CPAMC peptide of human red blood cells (RBC) from melittin-induced hemolysis was also examined. To 0.3 mL of 2% human RBC suspension was added to melittin and/or peptide taken in 0.7 mL of PBS. The tubes were incubated at room temperature for 30 min, centrifuged (FIG. 5A) and the OD of the supernatant was measured at 540 nm. PBS and PBS containing 0.1% TritonX-100 served as negative and positive control, respectively.

[1] = system: HEK293 IL-6 reporter cells; test: IL-6 signaling, STAT3-stimulated SEAP reporter; format: cell-based; details: human recombinant IL-6 and peptides, 1 hr
Method: HEK293 IL-6 reporter cells were treated with human recombinant IL-6 and the peptides for 1 hr. The STAT3-stimulated SEAP activity in the culture supernatant was measured using QUANTI-Blue solution (InvivoGen) (FIG. 19B).

CL2006 C. elegans = test: CL2006 lifespan at 20° C. (paralysis and death model); format: in vivo; details: CL2006 worms, 50 μg peptide
Method: CL2006 C. elegans were used as a paralysis and death model. Worms are maintained at 15° C., with adult onset paralysis induced at 20° C.
50 μg CPAMC and CPPRAMC peptide or controls were added to CL2006 worms, and the fraction left alive over time at the restrictive temperature of 20° C. was quantified (FIG. 12). […] (FIG. 12).

[2] = system: human primary lens epithelial (HLE-1°) cells; test: Melittin cytotoxicity, cell viability imaging; format: cell-based; details: 1 μM melittin, 45 min
Method: The ability of CPAMC peptide to block the cytotoxic action of melittin on human primary lens epithelial (HLE-1°) cells was investigated. Cell viability imaging was performed with dead cells identified by fluorescent staining. HLE-1° cells cultured on a 96-well plate were treated with 1 μM melittin and/or different concentrations of CPAMC peptide for 45 min. At the end of the incubation, cell viability imaging was done using the EarlyTox cell integrity kit (Molecular Devices, Sunnyvale, Calif.) (FIG. 4A). The percentage of dead cells in each sample was calculated from the live/dead cell imaging data using the Softmax Pro software (FIG. 4B).

C. elegans (N2) worms = test: Juglone (JG)-induced oxidative stress survival; format: in vivo; details: N2 worms at day 5, 50 μg peptide 24 h, 50 μM JG
Method: N2 worms at day 5 pretreated for 24 h with 50 μg CPAMC or CP-SC (control) and subjected to 50 μM JG. Survival was checked every hour under a microscope until the end of survival. The median survival value in CPAMC and CP-SC (control) peptides corresponds to 7.3 h and 5.9 h, respectively, compared to vehicle control (4.9 h) (FIG. 15).

CL4176 C. elegans = test: CL4176 Aβ-induced paralysis and survival assay; format: in vivo; details: CL4176 worms
Method: CL4176 C. elegans is a temperature sensitive strain. Worms are maintained at 15° C. and shifted to increased temperature to cause Aβ-induced paralysis in adults. This has been used as a C. elegans model of Alzheimer's disease.
A scheme of a paralysis assay with CL4176 worms is shown (FIG. 13A). Peptide treatment began on CL4176 embryos and continued throughout the experiment. After 2 days at 15° C., the temperature was increased to the restrictive temperature of 25° C. Worms were scored for survival and paralysis.
Example images of paralyzed and non-paralyzed worms are shown (FIG. 13C).

[3] = system: wild-type C. elegans (N2); test: C. elegans N2 lifespan assay at 20° C. with peptide feeding; format: in vivo; details: N2 worms
Method: A schematic of an assay of C. elegans N2 lifespan at 20° C. is shown (FIG. 10A). This involved peptide treatment (50 μg) with E. coli OP50 as a food source. Plates were changed every second day with 50 μg fresh peptide and OP50. Scoring of survival was done every day to the last day of survival. 50 mM FUdR was added in experimental plates between D1 and D5 to prevent progeny production.

[4] = system: C. elegans wild-type (N2 strain); test: Paraquat (PQ)-induced oxidative stress survival; format: in vivo; details: five-day old N2 worms, 50 μg peptide 24 hours, 50 mM PQ
Method: Five-day old N2 worms were pretreated with 50 μg peptide for 24 hours and subjected to 50 mM PQ. The survival of the worms was monitored every hour under a microscope until the end of survival. […] The median survival value (50% survival) in CPPRAMC, CPAMC, and CP-SC (control) peptides corresponds to 9.6 h, 8.9 h and 5.9 h, respectively, as compared to vehicle control (5.5 h) (FIG. 14).

Substance: CH3-LFVIFLVHFSPGRDEDKDEK-NH2 (Me-LFVIFLVHFSPGRDEDKDEK-NH2) [CPAMC, Cell-penetrable, amphiphilic mini chaperone synthesized with L-amino acids]
- % increase in survival (C. elegans (N2 strain); 35° C., 50 μg peptide, vs control): 31* %
- Median survival ± SE (hours at 35° C.) (C. elegans (N2 strain); 24 hours 50 μg peptide at 20° C., then 35° C.): 11.0 ± 0.4 h
- oxidative stress by DCFH-DA staining (ARPE-19 cells): reduce or block the oxidative stress induced by sodium iodate
- hemolysis by melittin in presence of peptide (human red blood cells): Hemolysis decreased as concentration of CPAMC increased
- IL-6 signaling (STAT3-stimulated SEAP activity) [1]: IL-6 signaling is also suppressed
- Median survival ± SE (days at 20° C.) (CL2006 C. elegans): 7.7 ± 0.28 days
- % increase in survival (CL2006 C. elegans; vs control): 11.6%
- percentage of dead cells with melittin and peptide [2]: blocks the cytotoxic action of melittin
- median survival value (C. elegans (N2) worms): 7.3 h
- delay of Aβ-induced paralysis (CL4176 C. elegans; 25° C.): delay of CL4176 worm paralysis compared to controls
- % increase in median survival (CL4176 C. elegans; 25° C., vs control): 12%
- Median survival Hours ± SE (CL4176 C. elegans; 2 days at 15° C., then 25° C.): 49.6 ± 0.5 h
- Median Lifespan (Days ± SE) ([3]; 50 μg peptide with E. coli OP50): 18.23 ± 0.25 days
- Increase in median survival (%) ([3]; 50 μg peptide, vs control): 36* %
- median survival value (50% survival) [4]: 8.9 h
